Assay results published in patent publication US5521173A, “Tricyclic benzazepine vasopressin antagonists” (American Home Products Corporation, priority 1995, dated 1996).

Tests used:
Vasopressin V2 = Vasopressin V2 Antagonist Activity in Conscious Hydrated Rats; format: in vivo, rat; conditions: 10 mg/kg orally, AVP 0.4 μg/kg i.p.; for Osmolality: urine
Protocol: Two to four rats are used for each compound. One hour later, arginine vasopressin (AVP, antidiuretic hormore, ADH) dissolved in peanut oil is administered at 0.4 μg/kg intraperitoneally. Two rats in each test would not receive arginine vasopressin but only the vehicle (peanut oil) to serve as water-loading control. Twenty minutes later each rat is given 30 mL/kg of deionized water orally by gavage and is placed individually in a metabolic cage equipped with a funnel and a graduated glass cylinder to collect urine for four hours. Urine volume is measured and osmolality analyzed by use of a Fiske One-Ten osmometer (Fiske Assoc., Norwood, Mass., USA). Urinary sodium, potassium, and chloride are analyzed by use of ion-specific electrodes in a Beckman E3 (Electrolyte 3) Analyzer. In the following results, […] and decreased osmolality relative to AVP-control indicates activity.

Vasopressin V1 = Vasopressin V1 Antagonist Activity in Conscious Rats (vasopressin vasopressor response); format: in vivo, rat; conditions: 10 mg/kg iv; for Max % Inhibition: vasopressin vasopressor response
Protocol: Vasopressin V1 Antagonist Activity in Conscious Rats Conscious rats are restrained in a supine position with elastic tape. The area at the base of the tail is locally anesthetized by subcutaneous in filtration with 2% procaine (0.2 ml). Using aseptic technique the ventral caudal tail artery is isolated and a cannula made of PE 10 and 20 (heat-fused) tubing is passed into the lower abdominal aorta. The cannula is secured, heparinized (1000 i.u./cc), sealed and the wound closed with one or two stitches of Dexon 4-0. The caudal vein is also cannulated in the same manner for intravenous drug administration. The duration of the surgery is approximately 5 minutes. Additional local anesthesia (2% procaine or lidocaine) is provided as needed. The animals are placed in plastic restraining cages in an upright position. The cannula is attached to a Statham P23Db pressure transducer and pulsatile blood pressure is recorded. […] Percentage of antagonism by the compound is calculated using the pre-drug vasopressin vasopressor response as 100%. The results of this test on representative compounds of this invention in which the dose, the maximum % inhibition and the time in minutes, are shown in Table III.

Rat Hepatic V1 Receptors = molecular target: T1, Rat Hepatic V1 Receptors (Rattus norvegicus, UniProt P30560); test: Binding Assay to Rat Hepatic V1 Receptors; conditions: rat hepatic V1 (no asterisk)
T1 construct: Rat liver plasma membranes expressing the vasopressin V1 receptor subtypes; from tissue; host or cells: rat liver plasma membranes (sucrose density gradient)
T1 sequence (P30560 whole entry): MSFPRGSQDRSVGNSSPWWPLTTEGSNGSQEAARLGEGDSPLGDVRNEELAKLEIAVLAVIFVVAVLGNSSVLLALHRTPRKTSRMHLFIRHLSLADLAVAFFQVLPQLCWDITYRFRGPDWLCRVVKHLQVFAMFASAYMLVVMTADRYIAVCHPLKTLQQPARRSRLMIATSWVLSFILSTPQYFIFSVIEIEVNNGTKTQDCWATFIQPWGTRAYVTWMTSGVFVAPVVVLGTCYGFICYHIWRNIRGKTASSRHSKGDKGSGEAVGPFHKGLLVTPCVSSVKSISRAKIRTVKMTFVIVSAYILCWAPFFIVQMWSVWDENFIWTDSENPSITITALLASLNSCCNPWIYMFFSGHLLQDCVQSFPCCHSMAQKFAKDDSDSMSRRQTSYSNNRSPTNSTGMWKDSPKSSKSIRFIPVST
Protocol: Binding Assay to Rat Hepatic V1 Receptors
Rat liver plasma membranes expressing the vasopressin V1 receptor subtypes are isolated by sucrose density gradient according to the method described by Lesko et al., (1973). These membranes are quickly suspended in 50.0 mM Tris.HCl buffer, pH 7.4, containing 0.2% bovine serum albumin (BSA) and 0.1 mM phenylmethylsulfonylfluoride (PMSF) and kept frozen at -70° C. until used in subsequent binding experiments. […]
For test compounds, these are solubilized in 50% dimethylsulfoxide (DMSO) and added in 20.0 μl volume to a final incubation volume of 200 μl. […] The radioactivity trapped on the filter disk by the ligand-receptor complex is assessed by liquid scintillation counting in a Packard LS Counter, with an efficiency of 65% for tritium. The data are analyzed for IC50 values by the LUNDON-2 program for competition (LUNDON SOFTWARE, Ohio).

[1] = molecular target: T2, Rat Kidney Medullary V2 Receptors (Rattus norvegicus, UniProt Q00788); test: Binding Assay to Rat Kidney Medullary V2 Receptors; conditions: rat kidney medullary V2 (no asterisk)
T2 construct: Medullary tissues from rat kidneys are dissected out; from tissue; host or cells: rat kidney medulla membranes
T2 sequence (Q00788 whole entry): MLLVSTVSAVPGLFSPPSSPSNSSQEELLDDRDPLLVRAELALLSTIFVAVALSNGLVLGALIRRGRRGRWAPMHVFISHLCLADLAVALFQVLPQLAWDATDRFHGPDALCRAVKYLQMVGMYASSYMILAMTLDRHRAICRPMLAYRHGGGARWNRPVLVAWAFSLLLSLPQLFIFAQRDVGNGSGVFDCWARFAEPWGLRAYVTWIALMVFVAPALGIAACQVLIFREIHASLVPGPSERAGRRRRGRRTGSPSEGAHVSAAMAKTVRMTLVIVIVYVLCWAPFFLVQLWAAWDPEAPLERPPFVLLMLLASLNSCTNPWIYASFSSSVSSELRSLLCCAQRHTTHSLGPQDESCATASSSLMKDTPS
Protocol: Binding Assay to Rat Kidney Medullary V2 Receptors
Medullary tissues from rat kidneys are dissected out, cut into small pieces and soaked in a […] sodium chloride solution containing 1.0 mM EDTA with many changes of the liquid phase, until the solution is clear of blood. The tissue is homogenized in a 0.25M sucrose solution containing 1.0 mM EDTA and 0.1 mM PMSF using a Potter-Elvehjem homogenizer with a teflon pestle. The homogenate is filtered through several layers (4 layers) of cheese cloth. The filtrate is rehomogenized using a dounce homogenizer, with a tight fitting pestle. The final homogenate is centrifuged at 1500× g for 15 min. […] The protein content is determined by the Lowry's method (Lowry et al., J. Biol. Chem., 1953). […]
For binding experiments, the following is added in μl volume to wells of a 96 well format of a microtiter plate: 100.0 μl of 100.0 mM Tris.HCl buffer containing 0.2% heat inactivated BSA, 10.0 mM MgCl2 and a mixture of protease inhibitors: leupeptin, 1.0 mg %; aprotinin, 1.0 mg %; 1,10-phenanthroline, 2.0 mg %; trypsin inhibitor, 10.0 mg % and 0.1 mM PMSF, 20.0 μl of [^3 H] […] Non-specific binding is assessed in the presence of 1.0 μM of unlabeled ligand, added in 20 μl volume. […] The data are analyzed for IC50 values by the LUNDON-2 program for competition (LUNDON SOFTWARE, Ohio).

Structure (SMILES) | Urine Volume (Vasopressin V2) | Osmolality (Vasopressin V2) | Time (of maximum % inhibition) (Vasopressin V1) | Max % Inhibition (Vasopressin V1) | IC50 (Rat Hepatic V1 Receptors) | IC50 [1]
O=C(c1ccc(-c2ccccc2)cc1)N1Cc2cccn2Cc2ccccc21 [Example 19, 10-([1,1'-Biphenyl]-4-ylcarbonyl)-10,11-dihydro-5H-pyrrolo[2,1-c][1,4]benzodiazepine] | 3.5 ml/4 hrs | 1598 mOsm/kg | 30 min | 60% |  | 
O=C(c1ccc(-c2ccccc2C(F)(F)F)cc1)N1Cc2cccn2Cc2ccccc21 [Example 8] | 8 ml/4 hrs | 887 mOsm/kg |  |  | 0.67 µM | 3.3 µM
O=C(c1ccc(-c2cc(F)cc(F)c2)cc1)N1Cc2cccn2Cc2ccccc21 [Example 3, 10,11-Dihydro-10-[4-(3,5-difluorophenyl)benzoyl]-5H-pyrrolo[2,1-c][1,4]benzodiazepine] | 5.9 ml/4 hrs | 1205 mOsm/kg | 30 min | 92% |  | 
O=C(c1ccc(-c2ccccc2)cc1)N1Cc2ccnn2Cc2ccccc21 [Example 7, 5-([1,1'-Biphenyl]-4-ylcarbonyl)-5,10-dihydro-4H-pyrazolo[5,1-c][1,4]benzodiazepine] | 7.5 ml/4 hrs | 1005 mOsm/kg | 30 min | 90% |  | 
O=C(c1ccc(-c2ccccn2)cc1)N1Cc2cccn2Cc2ccccc21 [Example 9, 10,11-Dihydro-10-[4-(2-pyridinyl)benzoyl]-5H-pyrrolo[2,1-c][1,4]benzodiazepine] | 8.3 ml/4 hrs | 857 mOsm/kg | 30 min | 70% | 0.4 µM | 1.2 µM
